Data on 1 compound can be found in publication PMC9106635, “Stimulation of the atypical chemokine receptor 3 (ACKR3) by a small-molecule agonist attenuates fibrosis in a preclinical liver but not lung injury model” (Cellular and Molecular Life Sciences: CMLS, 2022).

A word on the IC50: it is the concentration at which inhibition is half-maximal. The low end stands for higher potency, the high end for lower potency.

SMILES strings stand for the structures. Like-named read-outs stand apart in the source and are kept apart here.

Series [1] is described as follows: Compound concentration in liver and lung tissue homogenates (LC-MS/MS). In kind it is in vivo, mouse. The settings on record: mean ± sem. How it is done: Pharmacokinetic analysis of plasma samples was performed at GVK BIO Sciences Pvt. Ltd. (Hyderabad, India). The pharmacokinetic properties of compound 18a were determined by subcutaneous administration in male C57BL/6 mice. A 30 mg/kg dose was formulated as a solution in 23% hydroxypropyl-beta-cyclodextrin (HPBCD; w/v) in water. The dose volume was 3 mL/kg. Serial blood samples were collected at 0.5, 1, 2, 4, 6, 8 and 24 h post dosing (n = 3). Plasma concentration of compound 18a was determined by a LC–MS/MS method. Chromatography was performed on a reverse phase column (Kinetex EVO, C18, 50 × 4.6 mm, 5 µ) at a flow rate of 1 mL/minute, using a gradient-elution method. Mobile Phase A was a 10 mM ammonium acetate solution with 0.1% formic acid in water, whereas mobile phase B was a mixture of acetonitrile and methanol (50:50). The gradient started at 5% B ramped up to 95% B over 1 min, held at 95% B for 1.2 min, and then ramped down to 5% B over 0.1 min, and held at 5% B for 1.2 min. The mass spectrometer was operated in positive-ionization mode and Telmisartan was used as internal standard. […] The Cmax, Tmax, AUC and half-life value (t1/2) were determined using standard non-compartmental pharmacokinetic methods. The concentration of compound 18a in liver and lung tissue was determined by LC–MS/MS at Eurofins (Vergeze, France). […] Data are expressed as mean ± sem.

The test system of series [2] is CCl4-induced liver fibrosis in C57BL/6J mice. The experiment in a line: CCl4-induced liver fibrosis model. Type of series: in vivo, mouse. The settings on record: 15 mg/kg/dose SC BID. Here is the method:
A preclinical mouse model for CCl4-induced liver fibrosis was performed at the Department of Metabolic Health Research, The Netherlands Organisation for Applied Scientific Research (TNO) (Leiden, The Netherlands). Fifty-two male C57BL/6J mice were matched on body weight prior to the study and divided into five groups (experimental study design, Supplementary Figure S1a). Starting at day 0, 10–12-week-old mice were intraperitoneally (i.p.) injected (three times a week) with mineral oil (group 1) or CCl4 (15% v/v in mineral oil, group 2–5) for a total of 28 days. At day 0, mice received subcutaneous treatment with compound 18a (15 mg/kg/dose, twice daily (BID), group 3), or corresponding vehicle control (23% HPBCD, twice daily (BID), groups 1 and 2)], or received daily gavage with either an ALK5/ALK4 kinase inhibitor [SM 16 (45 mg/kg/dose, PO, QD, group 5) or its corresponding vehicle control (β-cyclodextrin sulfobutyl ether sodium salt or captisol, PO, QD, group 4)]. Plasma samples were collected by a tail vein bleed at day 7. At day 28, mice were sacrificed using CO2 and additional plasma samples and liver lobes were collected. As a primary endpoint collagen surface area was determined on cross-sections of the lateral left lobe by picro sirius red (PSR) staining. As a secondary endpoint collagen content (hydroxyproline) of the left median lobe was analyzed using a chromogenic assay according to the manufacturer’s instructions (QuickZyme Biosciences, Leiden, The Netherlands).

Series [3] concerns isoproterenol-induced cardiac fibrosis in mice. Also on record: method as in PMID 29627981. The settings on record: isoproterenol-induced cardiac injury; cited from earlier work.
A further series deals with hCXCR4 (Homo sapiens, UniProt P61073). The experiment in a line: Ca2+ mobilization assay, U87.CD4.CXCR4 cells, CXCL12-induced. Type of series: cell-based. Also on record: expressed in transfected cells; host or cells: U87.CD4.CXCR4. The settings on record: antagonism of CXCL12 response. How it is done: The calcium (Ca^2+) mobilization assay was described in detail before. Briefly, U87.CD4.CXCR4 or U87.CD4.CCR5 cells (2 × 10^4 cells per well in DMEM/10% FBS/0.01 M HEPES) were seeded in gelatin-coated (Sigma-Aldrich; 0.1% gelatin in DPBS) black-walled 96-well plates and incubated overnight at 37 °C and 5% CO2. The next day, cells were loaded with the fluorescent Ca^2+ indicator Fluo-2 acetoxymethyl (AM) ester (4 μM final concentration; Abcam) and incubated at RT in the dark for 45 min. Then, cells were washed with assay buffer (see above) and subsequently incubated with different concentrations of compound for ~ 10 min prior to addition of 6.25 nM CXCL12 (in case of CXCR4) or 6.4 nM CCL5 (in case of CCR5). Fluctuations in intracellular Ca^2+ levels were measured in real time by the FLIPR Tetra® device (Molecular Devices) in all 96 wells simultaneously. The response (Relative Light Units, RLUs) over baseline was calculated (ScreenWorks 4.0® software, Molecular Devices) by dividing the RLUs by a base line value measured just before addition of CXCL12 or CCL5, respectively. Inhibition of the Ca^2+ response was determined taking into account negative (i.e., untreated cells without stimulation) and positive (i.e., untreated cells stimulated with either CXCL12 or CCL5) control samples.
hCXCR4, sequence (P61073 whole entry): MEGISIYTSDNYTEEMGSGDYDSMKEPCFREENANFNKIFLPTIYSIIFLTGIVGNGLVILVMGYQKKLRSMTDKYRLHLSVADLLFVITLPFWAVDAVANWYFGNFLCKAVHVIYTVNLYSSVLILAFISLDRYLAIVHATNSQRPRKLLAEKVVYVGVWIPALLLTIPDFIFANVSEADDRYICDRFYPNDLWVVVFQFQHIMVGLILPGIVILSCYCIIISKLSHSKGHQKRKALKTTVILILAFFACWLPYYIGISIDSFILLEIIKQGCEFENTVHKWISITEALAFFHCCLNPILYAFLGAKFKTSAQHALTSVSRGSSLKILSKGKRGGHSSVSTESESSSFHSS
Background: A change in cytosolic calcium serves as a functional read-out for many receptors and channels.

The next series deals with hACKR3 (Homo sapiens, UniProt P25106). The experiment in a line: β-arrestin2 recruitment assay (PathHunter CHO-K1 CXCR7 β-arrestin cell line). Also on record: host or cells: CHO-K1 (PathHunter CXCR7 β-arrestin cell line). Type of series: cell-based. Here is the method: β-arrestin2 recruitment downstream of ACKR3 activation was analyzed using the PathHunter CHO-K1 CXCR7 β-arrestin Cell Line (93-0248C2; DiscoverX). Cells were cultured in AssayComplete™ Cell Culture Kit-107 (92-3107G; DiscoverX) at 37 °C and 5% CO2. Briefly, 20,000 cells/well were seeded in AssayComplete™ Cell Plating 2 Reagent (93-0563R2A; DiscoverX) in a white 96-well plate (100 µL/well) with clear bottom (Costar, 3610) and incubated overnight at 37 °C and 5% CO2. The next day, 10 µL/well of test compound (11 × concentrated) was added and cells were incubated for 90 min at 37 °C and 5% CO2. Compounds were tested in duplicate in a 1:4 dilution series ranging from 1000 nM to 0.06 nM final concentration. After incubation, 55 µL/well of detection reagent (PathHunter Detection kit; 93-0001; DiscoverX) was added and cells were incubated for 1 h at room temperature (RT) protected from light. Finally, luminescence was measured using a FLIPR Tetra® device (Molecular Devices, Sunnyvale, CA, USA). Four parameter non-linear curve fitting (GraphPad Prism 9.0.2) was used to determine the EC50 value for β-arrestin2 recruitment.
hACKR3, sequence (P25106 whole entry): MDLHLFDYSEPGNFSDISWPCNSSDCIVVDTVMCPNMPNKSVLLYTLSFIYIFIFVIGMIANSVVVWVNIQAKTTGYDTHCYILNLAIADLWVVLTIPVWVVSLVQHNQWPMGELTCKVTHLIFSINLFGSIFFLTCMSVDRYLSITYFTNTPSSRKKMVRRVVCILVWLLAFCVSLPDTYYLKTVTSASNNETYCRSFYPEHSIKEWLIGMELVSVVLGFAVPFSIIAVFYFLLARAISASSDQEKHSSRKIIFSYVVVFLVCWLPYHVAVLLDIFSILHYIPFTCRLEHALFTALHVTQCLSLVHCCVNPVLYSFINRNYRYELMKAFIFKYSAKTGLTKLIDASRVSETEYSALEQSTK
On the technique in general: Arrestin recruitment assays detect the binding of arrestin to an activated receptor.

For `CCc1ccn2ccnc2c1N1CCCN(C(CC(N)=O)C2CCN(C(=O)C3CC4CCC3O4)CC2)CC1` (stereo not shown) [compound 18a], the “concentration in lung tissue” value in series [1] (day 21, 2 h after last subcutaneous dose (15 mg/kg BID), n=4) was 1703 ± 54 ng/g tissue. In series [1] (day 28, 2 h after last subcutaneous dose (15 mg/kg BID), n=3), the “concentration in liver tissue” value is on record as 2528 ± 511 ng/g tissue. Besides, in series [2] (CCl4-treated mice, day 28), the “liver weight per body weight” value is recorded as “not affected by compound 18a treatment”. Besides, the “collagen levels by PSR staining” value in series [2] (day 28, vs CCl4 + 23% HPBCD, P = 0.04) is listed as “modestly, but significantly, reduced collagen levels”. In addition, in series [2] (day 28, vs CCl4 + 23% HPBCD, P = 0.06), the “hydroxyproline levels in liver” value was “near significant reduction of hydroxyproline levels”. Further, the cardiac fibrosis entry in series [3] is “protect mice from cardiac fibrosis”. On hCXCR4, the IC50 was greater than 40000 nM. In addition, the EC50 is 3.25 nM at hACKR3 (conversion of 3.16 nM, read-out: EC50 β-arrestin2 recruitment expressed in ng/mL (converted)); 3.16 ± 0.12 nM at hACKR3 (mean ± SD of two independent experiments, read-out: EC50 β-arrestin2 recruitment); 9.95 nM at hACKR3 (taking into account 34% free fraction, read-out: EC50 corrected for free fraction in mouse plasma (target value) (converted)).
